Values after ≈ are worked out from the molar mass of the structure shown.
Legend:
[1] = system: Reverse Transcriptase of Rauscher Leukemia Virus; assay: Inhibition of Reverse Transcriptase of Rauscher Leukemia Virus; assay type: biochemical; parameters: Reverse Transcriptase of Rauscher Leukemia Virus % Inhibition: concentration or dose not given beside the values; settings: for Reverse Transcriptase of Rauscher Leukemia Virus % Inhibition: 37° C. for 90 minutes (Table 3); for Reverse transcriptase activity, cpm: 37° C. for 90 minutes, control 5396 cpm; for RLV Reverse Transcriptase % Inhibition: at a concentration of 0.25 μmole/ml (Table 4), 90 min
Method: *(The reverse transcriptase activity was measured at 37° C. for 90
(§1) Table 4, below, relates to the activity of compounds of Examples VIII through XVIII as bacterial RNA polymerase inhibitors and as inhibitors of reverse transcriptase when tested in the manner the compounds of Examples I through V as related, supra, in Tables 2 and 3.
**At a concentration of 0.25 μmole/ml.

S. Hemolyticus = assay: Bacterial inhibition, MIC in brain heart infusion broth; assay type: cell-based; settings: read-out: MIC (minimal inhibitory concentration)
From the text: (§2) ^a Minimal inhibitory concentration in brain heart infusion broth.

S. aureus = assay: as above; assay type: cell-based; settings: Staphylococcus aureus, read-out: MIC (minimal inhibitory concentration)
From the text: as §2

Ps. aeruginosa = assay: as above; assay type: cell-based; settings: Pseudomonas aeruginosa, read-out: MIC (minimal inhibitory concentration)
From the text: as §2

K. pneumoniae = assay: as above; assay type: cell-based; settings: Klebsiella pneumoniae, read-out: MIC (minimal inhibitory concentration)
From the text: as §2

D. penumoniae = assay: as above; assay type: cell-based; settings: read-out: MIC (minimal inhibitory concentration)
From the text: as §2

St. Faecalis = assay: as above; assay type: cell-based; settings: Enterococcus faecalis, read-out: MIC (minimal inhibitory concentration)
From the text: as §2

E. coli = assay: as above; assay type: cell-based; settings: Escherichia coli, read-out: MIC (minimal inhibitory concentration)
From the text: as §2

P. vulgaris = assay: as above; assay type: cell-based; settings: Proteus vulgaris, read-out: MIC (minimal inhibitory concentration)
From the text: as §2

E. coli RNA Polymerase = E. coli RNA Polymerase (Escherichia coli, UniProt P0A8V2); assay: E. coli RNA Polymerase Inhibition; assay type: biochemical; settings: 0.25 h; for remaining activity at 500 µM: 0.5 μM/ml of compound, room temperature, 15 minutes, control = 100; for inhibition at 500 µM: at a concentration of 0.5 μmole/ml (Table 4)
Sequence of E. coli RNA Polymerase (P0A8V2 whole entry): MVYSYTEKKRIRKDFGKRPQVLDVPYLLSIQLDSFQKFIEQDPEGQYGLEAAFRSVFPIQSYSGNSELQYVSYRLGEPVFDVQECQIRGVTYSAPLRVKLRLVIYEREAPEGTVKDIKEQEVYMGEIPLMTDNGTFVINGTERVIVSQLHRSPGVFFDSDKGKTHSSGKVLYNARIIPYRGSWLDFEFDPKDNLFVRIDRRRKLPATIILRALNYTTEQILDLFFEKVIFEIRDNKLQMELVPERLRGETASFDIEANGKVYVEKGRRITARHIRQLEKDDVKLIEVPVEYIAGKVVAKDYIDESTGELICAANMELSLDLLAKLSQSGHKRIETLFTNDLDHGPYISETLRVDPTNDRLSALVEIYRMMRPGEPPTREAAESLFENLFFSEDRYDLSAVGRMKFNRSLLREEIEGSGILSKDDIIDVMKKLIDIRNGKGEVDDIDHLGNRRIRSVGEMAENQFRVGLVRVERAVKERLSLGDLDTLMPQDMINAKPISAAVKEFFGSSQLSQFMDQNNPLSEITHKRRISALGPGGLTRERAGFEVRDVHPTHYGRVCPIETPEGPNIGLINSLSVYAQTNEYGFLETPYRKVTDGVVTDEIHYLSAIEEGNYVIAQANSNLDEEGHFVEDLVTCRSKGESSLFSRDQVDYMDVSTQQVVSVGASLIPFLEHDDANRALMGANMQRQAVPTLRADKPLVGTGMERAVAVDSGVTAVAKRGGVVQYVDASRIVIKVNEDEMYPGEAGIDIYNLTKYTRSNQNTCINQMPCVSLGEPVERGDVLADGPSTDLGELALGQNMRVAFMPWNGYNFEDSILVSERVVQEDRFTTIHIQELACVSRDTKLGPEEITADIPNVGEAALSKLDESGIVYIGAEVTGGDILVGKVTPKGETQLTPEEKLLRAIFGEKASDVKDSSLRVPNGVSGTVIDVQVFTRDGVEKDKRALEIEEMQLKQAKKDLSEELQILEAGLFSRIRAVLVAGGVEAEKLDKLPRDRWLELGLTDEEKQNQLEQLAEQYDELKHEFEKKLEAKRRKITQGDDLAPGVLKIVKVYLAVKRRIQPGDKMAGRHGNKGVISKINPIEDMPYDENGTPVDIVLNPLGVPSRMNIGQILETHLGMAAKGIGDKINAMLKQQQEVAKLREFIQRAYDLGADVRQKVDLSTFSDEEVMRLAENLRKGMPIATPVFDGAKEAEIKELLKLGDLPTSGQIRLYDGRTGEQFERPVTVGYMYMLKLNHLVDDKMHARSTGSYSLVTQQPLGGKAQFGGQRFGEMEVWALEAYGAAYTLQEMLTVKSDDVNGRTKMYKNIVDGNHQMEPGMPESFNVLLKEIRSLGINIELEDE
Sequence of E. coli RNA Polymerase (P0A8T7 whole entry partner): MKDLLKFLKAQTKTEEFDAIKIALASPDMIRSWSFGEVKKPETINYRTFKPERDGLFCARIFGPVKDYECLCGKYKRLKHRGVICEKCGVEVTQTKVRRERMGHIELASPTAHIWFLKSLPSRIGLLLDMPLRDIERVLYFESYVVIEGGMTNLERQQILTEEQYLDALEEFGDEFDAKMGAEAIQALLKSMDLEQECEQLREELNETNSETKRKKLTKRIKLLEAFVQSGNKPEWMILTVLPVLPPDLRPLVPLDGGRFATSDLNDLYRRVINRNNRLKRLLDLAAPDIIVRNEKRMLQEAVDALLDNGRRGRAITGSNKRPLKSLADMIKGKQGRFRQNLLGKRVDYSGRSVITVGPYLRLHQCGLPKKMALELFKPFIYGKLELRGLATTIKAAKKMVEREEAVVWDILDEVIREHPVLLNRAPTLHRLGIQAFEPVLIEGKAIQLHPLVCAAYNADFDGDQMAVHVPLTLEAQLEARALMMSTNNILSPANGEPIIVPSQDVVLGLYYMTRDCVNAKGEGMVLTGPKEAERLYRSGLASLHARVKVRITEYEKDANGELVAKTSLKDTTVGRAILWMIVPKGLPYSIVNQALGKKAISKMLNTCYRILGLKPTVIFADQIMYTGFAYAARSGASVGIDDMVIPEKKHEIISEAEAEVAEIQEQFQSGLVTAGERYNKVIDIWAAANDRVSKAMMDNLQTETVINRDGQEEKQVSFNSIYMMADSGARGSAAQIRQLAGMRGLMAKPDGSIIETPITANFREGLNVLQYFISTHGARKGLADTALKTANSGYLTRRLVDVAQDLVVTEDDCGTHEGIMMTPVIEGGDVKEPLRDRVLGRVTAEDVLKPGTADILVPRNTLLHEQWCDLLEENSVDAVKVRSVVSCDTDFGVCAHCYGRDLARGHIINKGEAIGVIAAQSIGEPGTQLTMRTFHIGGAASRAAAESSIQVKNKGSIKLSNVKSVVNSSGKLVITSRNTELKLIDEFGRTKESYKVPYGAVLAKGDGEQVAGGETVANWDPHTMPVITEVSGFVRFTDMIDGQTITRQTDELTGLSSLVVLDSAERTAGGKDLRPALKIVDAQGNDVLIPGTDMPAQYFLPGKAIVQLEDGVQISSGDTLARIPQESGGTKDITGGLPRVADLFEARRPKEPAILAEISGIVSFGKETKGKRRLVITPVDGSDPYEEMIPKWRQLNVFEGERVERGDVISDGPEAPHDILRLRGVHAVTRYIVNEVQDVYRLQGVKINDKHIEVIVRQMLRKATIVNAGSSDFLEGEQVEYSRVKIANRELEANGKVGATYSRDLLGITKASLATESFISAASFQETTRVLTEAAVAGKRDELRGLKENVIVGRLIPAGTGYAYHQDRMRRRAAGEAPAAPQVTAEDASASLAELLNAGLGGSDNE
Sequence of E. coli RNA Polymerase (P0A7Z4 whole entry partner): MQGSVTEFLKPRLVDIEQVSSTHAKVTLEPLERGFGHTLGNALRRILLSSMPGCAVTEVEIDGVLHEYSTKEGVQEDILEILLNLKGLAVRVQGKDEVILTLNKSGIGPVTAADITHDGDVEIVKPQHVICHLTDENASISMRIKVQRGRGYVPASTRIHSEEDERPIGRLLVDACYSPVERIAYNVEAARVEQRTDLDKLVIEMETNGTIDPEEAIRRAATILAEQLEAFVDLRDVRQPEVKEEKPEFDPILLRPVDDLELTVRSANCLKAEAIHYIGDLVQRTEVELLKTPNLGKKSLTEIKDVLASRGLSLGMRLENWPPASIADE
Sequence of E. coli RNA Polymerase (P0A800 whole entry partner): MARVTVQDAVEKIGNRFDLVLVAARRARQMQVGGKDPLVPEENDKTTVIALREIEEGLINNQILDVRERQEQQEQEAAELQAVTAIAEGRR
Method: The assay mixtures contained, in a total volume of 0.25 ml: (Tris)HCl
buffer, pH 7.9, 5 μmoles; MgCl2, 1 μmole; mercaptoethanol, 3
μmoles; MpCl2, 0.25 μmole: GTP, UTP, and CTP, 0.1 μmole
polymerase, 0.5 units; and […] of compound. Reactions were run a
room temperature for 15 minutes.
as §1
*At a concentration of 0.5 μmole/ml.

COC1=C2CC(C)CC(OC)C(O)C(C)/C=C(\C)C(OC(N)=O)C(OC)/C=C\C=C(/C)C(=O)NC(=C(C=NC(C)(C)C)C1=O)C2=O (stereo not shown) [Example I]
Reverse Transcriptase of Rauscher Leukemia Virus % Inhibition [1]: 93.0% | Reverse transcriptase activity, cpm [1]: 376 cpm | MIC (S. Hemolyticus): 250 µg/mL (≈ 388 µM) | MIC (S. aureus): 500 µg/mL (≈ 777 µM) | MIC (Ps. aeruginosa): 250 µg/mL (≈ 388 µM) | MIC (K. pneumoniae): 500 µg/mL (≈ 777 µM) | MIC (D. penumoniae): 250 µg/mL (≈ 388 µM) | MIC (St. Faecalis): > 500 µg/mL | MIC (E. coli): 500 µg/mL (≈ 777 µM) | MIC (P. vulgaris): 500 µg/mL (≈ 777 µM) | remaining activity at 500 µM (E. coli RNA Polymerase): 99%

COC1=C2CC(C)CC(OC)C(O)C(C)/C=C(\C)C(OC(N)=O)C(OC)/C=C\C=C(/C)C(=O)NC(=C(C=NOC(c3ccccc3)c3ccccc3)C1=O)C2=O (stereo not shown) [III]
Reverse Transcriptase of Rauscher Leukemia Virus % Inhibition [1]: 98.6% | Reverse transcriptase activity, cpm [1]: 75 cpm | MIC (S. Hemolyticus): 31.2 µg/mL (≈ 40.5 µM) | MIC (S. aureus): > 500 µg/mL | MIC (Ps. aeruginosa): > 500 µg/mL | MIC (K. pneumoniae): > 500 µg/mL | MIC (D. penumoniae): 62.5 µg/mL (≈ 81.2 µM) | MIC (St. Faecalis): > 500 µg/mL | MIC (E. coli): > 500 µg/mL | MIC (P. vulgaris): > 500 µg/mL | remaining activity at 500 µM (E. coli RNA Polymerase): 84%

COC1=C2CC(C)CC(OC)C(O)C(C)/C=C(\C)C(OC(N)=O)C(OC)/C=C\C=C(/C)C(=O)NC(=C(C=NN3CCN(C)CC3)C1=O)C2=O (stereo not shown) [II]
Reverse Transcriptase of Rauscher Leukemia Virus % Inhibition [1]: 93.4% | Reverse transcriptase activity, cpm [1]: 357 cpm | MIC (S. Hemolyticus): 500 µg/mL (≈ 729 µM) | MIC (S. aureus): > 500 µg/mL | MIC (Ps. aeruginosa): 250 µg/mL (≈ 365 µM) | MIC (K. pneumoniae): 500 µg/mL (≈ 729 µM) | MIC (D. penumoniae): 500 µg/mL (≈ 729 µM) | MIC (St. Faecalis): > 500 µg/mL | MIC (E. coli): 500 µg/mL (≈ 729 µM) | MIC (P. vulgaris): 500 µg/mL (≈ 729 µM) | remaining activity at 500 µM (E. coli RNA Polymerase): 106%

CCCCCCCCON=CC1=C2NC(=O)/C(C)=C/C=C\C(OC)C(OC(N)=O)/C(C)=C/C(C)C(O)C(OC)CC(C)CC(=C(OC)C1=O)C2=O (stereo not shown) [IV]
Reverse Transcriptase of Rauscher Leukemia Virus % Inhibition [1]: 94.4% | Reverse transcriptase activity, cpm [1]: 303 cpm | MIC (S. Hemolyticus): 7.8 µg/mL (≈ 10.9 µM) | MIC (S. aureus): > 500 µg/mL | MIC (Ps. aeruginosa): > 500 µg/mL | MIC (K. pneumoniae): > 500 µg/mL | MIC (D. penumoniae): 7.8 µg/mL (≈ 10.9 µM) | MIC (St. Faecalis): > 500 µg/mL | MIC (E. coli): > 500 µg/mL | MIC (P. vulgaris): > 500 µg/mL | remaining activity at 500 µM (E. coli RNA Polymerase): 110%

COC1/C=C\C=C(/C)C(=O)Nc2cc3nc4ccccc4nc3c(c2O)CC(C)CC(OC)C(O)C(C)/C=C(\C)C1OC(N)=O (stereo not shown) [VIII, demethoxygeldanazine]
RLV Reverse Transcriptase % Inhibition [1]: 98% | inhibition at 500 µM (E. coli RNA Polymerase): 5 to 16%

COC1=C2CC(C)CC(OC)C(O)C(C)/C=C(\C)C(OC(N)=O)C(OC)/C=C\C=C(/C)C(=O)NC(=C(C=NN3CCN(Cc4ccccc4)CC3)C1=O)C2=O (stereo not shown) [V]
Reverse Transcriptase of Rauscher Leukemia Virus % Inhibition [1]: 97.1% | Reverse transcriptase activity, cpm [1]: 154 cpm | MIC (S. Hemolyticus): 125 µg/mL (≈ 164 µM) | MIC (S. aureus): 500 µg/mL (≈ 656 µM) | MIC (Ps. aeruginosa): 250 µg/mL (≈ 328 µM) | MIC (K. pneumoniae): 500 µg/mL (≈ 656 µM) | MIC (D. penumoniae): 62.5 µg/mL (≈ 82 µM) | MIC (St. Faecalis): 500 µg/mL (≈ 656 µM) | MIC (E. coli): 500 µg/mL (≈ 656 µM) | MIC (P. vulgaris): 500 µg/mL (≈ 656 µM) | remaining activity at 500 µM (E. coli RNA Polymerase): 88%

COC1/C=C\C=C(/C)C(=O)Nc2cc3nc4ccc(C)cc4oc-3c(c2=O)CC(C)CC(OC)C(O)C(C)/C=C(\C)C1OC(N)=O (stereo not shown) [XIII]
RLV Reverse Transcriptase % Inhibition [1]: 77% | inhibition at 500 µM (E. coli RNA Polymerase): 21%

COC1/C=C\C=C(/C)C(=O)Nc2cc3nc4cc(C)ccc4oc-3c(c2=O)CC(C)CC(OC)C(O)C(C)/C=C(\C)C1OC(N)=O (stereo not shown) [XII]
RLV Reverse Transcriptase % Inhibition [1]: 89% | inhibition at 500 µM (E. coli RNA Polymerase): 9%

COC1/C=C\C=C(/C)C(=O)Nc2cc3nc4cccc(C)c4oc-3c(c2=O)CC(C)CC(OC)C(O)C(C)/C=C(\C)C1OC(N)=O (stereo not shown) [XIV]
RLV Reverse Transcriptase % Inhibition [1]: 72% | inhibition at 500 µM (E. coli RNA Polymerase): 6%

COC1/C=C\C=C(/C)C(=O)Nc2cc3nc4ccccc4oc-3c(c2=O)CC(C)CC(OC)C(O)C(C)/C=C(\C)C1OC(N)=O (stereo not shown) [XI]
RLV Reverse Transcriptase % Inhibition [1]: 98% | inhibition at 500 µM (E. coli RNA Polymerase): 61 to 67%

COC(=O)[C@@H](NC(=O)c1ccc(C)c2oc3c4c(=O)c(cc-3nc12)NC(=O)/C(C)=C/C=C\C(OC)C(OC(N)=O)/C(C)=C/C(C)C(O)C(OC)CC(C)C4)[C@@H](C)O (stereo partly shown) [XVIII]
RLV Reverse Transcriptase % Inhibition [1]: 0%

COC(=O)c1cccc2oc3c4c(=O)c(cc-3nc12)NC(=O)/C(C)=C/C=C\C(OC)C(OC(N)=O)/C(C)=C/C(C)C(O)C(OC)CC(C)C4 (stereo not shown) [XVII]
RLV Reverse Transcriptase % Inhibition [1]: 0%

COC1/C=C\C=C(/C)C(=O)Nc2cc3nc4cc(Cl)ccc4oc-3c(c2=O)CC(C)CC(OC)C(O)C(C)/C=C(\C)C1OC(N)=O (stereo not shown) [XVI]
RLV Reverse Transcriptase % Inhibition [1]: 60%

COC1/C=C\C=C(/C)C(=O)Nc2cc3nc4cc(Br)ccc4oc-3c(c2=O)CC(C)CC(OC)C(O)C(C)/C=C(\C)C1OC(N)=O (stereo not shown) [XV]
RLV Reverse Transcriptase % Inhibition [1]: 82 - 100% | inhibition at 500 µM (E. coli RNA Polymerase): 60%
